Reference: patent publication US20210322422A1, “USE OF AKT INHIBITORS IN OPHTHALMOLOGY” (Hoffmann-La Roche Inc., priority 2018, published 2021)
Entries after “also recorded” stand apart in the source; their conditions may differ.

Key:
Type in all cases: in vivo, mouse
Cryba1 cKO mice [1] = experiment: flow cytometry estimation of percentage neutrophils in retina after intravitreal injection; conditions: male, 12 months old, intravitreal 500 uM, once weekly for three weeks, versus vehicle or untreated
Protocol: Mouse retinas were dissected from enucleated eyes and digested with 0.05% collagenase D at 37° C. for 30 min, teased with blunt end forceps and pipetted to release cells, passed through a 70 μm cell strainer, centrifuged at 1,300 g, 4° C. for 20 minutes^10. The entire pellet was used for staining with the FITC-tagged cell surface markers CD45, V450-tagged Ly6G and Alexa fluor 700-tagged CD11b (BD Pharmigen™, USA) at a concentration of 1 μg/ml in PBS containing 1% BSA for 1 h. Cells were washed and analyzed on a flow cytometer (BD Aria III, FACS DIVA software, BD Biosciences, USA and FlowJo software-version 7.6.5), SSC-A/CD45+(FITC) cells were manually gated and among this population of cells; % Ly6G+ and % CD11b+Ly6G+ cells were quantified.
Cryba1^fl/fl and Cryba1 cKO mice (Male, 12 months old; n=4) were anaesthetized by intraperitoneal injection of 0.15 ml of ketamine (2.5 mg/ml)+ xylazine (0.5 mg/ml) mixture. Topical anesthesia (proparacaine hydrochloride) was applied to the eye and pupils dilated with a drop of topical 2.5% phenylephrine hydrochloride ophthalmic solution. The eye was proptosed by slight depression of the lower lid with blunt curved forceps and washed with sterile saline. […] All instruments were sterilized with a steam autoclave. Bacitracin Ophthalmic ointment was applied postoperatively^6. […]

Cryba1 cKO mice [2] = experiment: histological sections (H&E) of retina after intravitreal injection; conditions: 1 year old, versus vehicle
Protocol: (§1) Cryba1^fl/fl and Cryba1 cKO mice (Male, 12 months old; n=4) were anaesthetized by intraperitoneal injection of 0.15 ml of ketamine (2.5 mg/ml)+ xylazine (0.5 mg/ml) mixture. Topical anesthesia (proparacaine hydrochloride) was applied to the eye and pupils dilated with a drop of topical 2.5% phenylephrine hydrochloride ophthalmic solution. The eye was proptosed by slight depression of the lower lid with blunt curved forceps and washed with sterile saline. […] All instruments were sterilized with a steam autoclave. Bacitracin Ophthalmic ointment was applied postoperatively^6. Animals were euthanized with CO2 gas four weeks after the first injection and the retinas were harvested.
For hematoxylin and eosin (H&E) staining, eyes from NOD-SCID mice (n=10) were enucleated and fixed initially in 2.5% glutaraldehyde for 72 h, followed by 10% buffered formalin. The eyes were embedded in methyl-methacrylate, sectioned and stained as previously described″.

AKT2 (p-AKT2 S474) = experiment: immunoblot of AKT2 phosphorylation in retinas after intravitreal injection; conditions: 1-year-old Cryba1 cKO mice
Protocol: SDS-PAGE and western blot analyses were performed as previously described^12. The primary antibodies were used at a dilution of 1:1000 whereas, all secondary antibodies were used at a dilution of 1:3000.
as §1

Cryba1 cKO mice [3] = experiment: ELISA of CXCL1 and IFNλ in RPE-choroid after intravitreal injection; conditions: versus age-matched vehicle and untreated
Protocol: The RPE choroid complexes harvested from freshly enucleated mouse eyes were kept on ice and then homogenized in 300 μL of complete extraction buffer (Abcam, USA) per 5 mg of tissue. The homogenized tissue was allowed to stay in constant agitation for 2 h at 4° C., centrifuged at 13,000 rpm at 4° C. for 20 min. The supernatants were aliquoted and stored at −80° C. and were subsequently used to perform ELISA to evaluate the levels of IFNλ, and CXCL1, as previously described^13.
as §1

For `NC1(Cc2ccc(Cl)cc2)CCN(c2ncnc3[nH]ccc23)CC1` [CCT128930], the “infiltrating neutrophils (% Ly6G+ and % CD11b+Ly6G+ cells) in retina” value (Cryba1 cKO mice [1]) was “decrease in infiltrating neutrophils; also recorded: significantly fewer neutrophils in the retinas”, the “retinal structure / early RPE abnormalities (H&E)” value (Cryba1 cKO mice [2]) was “exhibited normal structure; also recorded: reverses these early RPE abnormalities” and the “levels of total AKT in retina” value (AKT2 (p-AKT2 S474); immunoblot) was “levels of total AKT did not change”. The “levels of pAKT2 (p-AKT2 S474) in retina” value (AKT2 (p-AKT2 S474); immunoblot densitometry, versus vehicle) was “significantly decreased the levels of pAKT2; also recorded: reduced”, the “CXCL1 levels in RPE-choroid” value (Cryba1 cKO mice [3]) was “reduced levels” and the “IFNλ levels in RPE-choroid” value (Cryba1 cKO mice [3]) was “reduced levels”.
